According to ChEMBL document CHEMBL3774349, “Thiazolo[4,5-d]pyrimidines as a privileged scaffold in drug discovery” (Eur J Med Chem, 2016):

Key:
Human betaherpesvirus 5 = test: Antiviral activity against Human cytomegalovirus Towne infected in HFF cells after 2 hrs by plaque reduction assay; format: functional, cell-based; conditions: Human betaherpesvirus 5, Towne
[1] = Cytotoxicity against human KB cells assessed as cell growth inhibition by crystal violet staining based spectrophotometry; conditions: read-out: TC50 (the source's name)
[2] = Cytotoxicity against monkey Vero cells assessed as cell growth inhibition by aqueous non-Radioactivity Cell proliferation Assay; format: cell-based; conditions: chlorocebus sabaeus, read-out: TC50 (the source's name)
[3] = Cytotoxicity against human MRC5 cells assessed as cell growth inhibition by aqueous non-Radioactivity Cell proliferation Assay; format: cell-based; conditions: read-out: TC50 (the source's name)
[4] = target: T1, Corticotropin-releasing factor receptor 1 (Homo sapiens) (UniProt P34998); test: Displacement of [125I]-Tyr0 sauvagine from human CRF1 receptor expressed in HEK293 cells membrane homogenates at 1000 nM for 120 mins by scintillation counting in the presence of antalarmin; format: cell membranes
T1 sequence (whole entry): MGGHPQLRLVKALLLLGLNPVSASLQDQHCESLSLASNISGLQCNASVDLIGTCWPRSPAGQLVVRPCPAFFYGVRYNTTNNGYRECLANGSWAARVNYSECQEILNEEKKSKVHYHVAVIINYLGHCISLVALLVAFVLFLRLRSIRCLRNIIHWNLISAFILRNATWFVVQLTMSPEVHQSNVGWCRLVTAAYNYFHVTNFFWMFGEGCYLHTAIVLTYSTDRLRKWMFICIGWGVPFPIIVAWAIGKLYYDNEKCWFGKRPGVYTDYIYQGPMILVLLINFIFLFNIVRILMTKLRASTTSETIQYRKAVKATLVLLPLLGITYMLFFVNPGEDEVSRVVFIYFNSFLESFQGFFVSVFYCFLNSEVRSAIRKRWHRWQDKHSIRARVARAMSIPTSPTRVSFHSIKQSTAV

Semliki Forest virus = test: Antiviral activity against Semliki forest virus infected in mouse; format: functional

Row | SMILES | IC50 (Human betaherpesvirus 5) [µM] | CC50 [1] [µM] | CC50 [2] [µM] | CC50 [3] [µM] | inhibition [4] [%] | Activity (Semliki Forest virus) [%]
1 | CC/C=C/Cn1c(=O)sc2c(=O)[nH]c(N)nc21 | 0.5 | 75 | 75 | 75 |  | 
2 | CCCN(CC1CC1)c1nc(C)nc2c1SC(=C(C#N)C#N)N2c1ccc(C(C)C)cc1Br |  |  |  |  | 25 | 
3 | CCOC(=O)/C(C#N)=C1/Sc2c(N(CCOC)CCOC)nc(C)nc2N1c1ccc(C(C)C)cc1Br |  |  |  |  | 25 | 
4 | CC(C)=CCn1c(=O)sc2c(=O)[nH]c(N)nc21 | 6.8 | 75 | 75 | 75 |  | 
5 | Nc1nc(=O)c2sc(=O)n([C@@H]3O[C@H](CO)[C@@H](O)[C@H]3O)c2[nH]1 [ISATORIBINE] |  |  |  |  |  | 92
